Experiment [1] concerns the target T1, recombinant human leukotriene A4 hydrolase enzyme (Homo sapiens, UniProt P09960).
T1 construct: purchased Cayman Chemical 10007817
T1 sequence (P09960 1-611): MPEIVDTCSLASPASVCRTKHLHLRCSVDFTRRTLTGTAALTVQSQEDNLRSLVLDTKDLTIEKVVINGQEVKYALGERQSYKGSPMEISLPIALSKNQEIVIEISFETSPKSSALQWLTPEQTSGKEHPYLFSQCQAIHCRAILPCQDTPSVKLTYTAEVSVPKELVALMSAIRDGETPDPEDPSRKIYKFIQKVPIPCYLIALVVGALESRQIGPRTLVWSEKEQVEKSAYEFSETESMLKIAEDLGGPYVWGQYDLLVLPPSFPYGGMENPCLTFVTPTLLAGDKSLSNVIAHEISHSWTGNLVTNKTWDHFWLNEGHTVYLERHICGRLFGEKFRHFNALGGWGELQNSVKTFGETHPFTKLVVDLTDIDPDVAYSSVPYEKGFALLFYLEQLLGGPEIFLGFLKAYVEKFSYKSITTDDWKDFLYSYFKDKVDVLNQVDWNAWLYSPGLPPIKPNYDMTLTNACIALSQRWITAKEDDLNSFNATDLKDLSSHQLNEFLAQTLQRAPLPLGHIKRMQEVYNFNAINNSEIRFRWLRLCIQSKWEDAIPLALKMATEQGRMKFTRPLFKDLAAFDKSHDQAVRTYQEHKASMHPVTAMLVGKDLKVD
The experiment is described as follows: Amino-peptidase assay, PGP. It is filed as biochemical. The conditions noted are these: concentration not given. The protocol: A series of compound concentrations were pre-incubated with 50 ng of recombinant human leukotriene A4 hydrolase enzyme (Cayman Chemical, 10007817) in 50 L assay buffer (50 mM Tris-HCl, 100 mM KCl). The reaction was stimulated by adding 50 L 1 mM proline-glycine-proline (Bachem, H-7284) and incubated for 30 minutes at 37° C. The reaction was stopped with the addition of 150 μL of glacial acetic acid. The amount of free proline released from the peptide was detected through a reaction with ninhydrin. 150 μL of 25 mg/mL ninhydrin (BDH, B10132) in 60:40 acetic acid/water was added to each sample, and boiled for 30 minutes at 100° C. and once samples had cooled to room temperature, 350 μL of toluene was added to extract the ninhydrin reaction product. The amount of free proline was determined by comparing the absorbance at 520 nm to the L-proline (Sigma Aldrich, 81709) reference standard. Inhibition of free proline production was calculated based on control samples.

Experiment [2] has as its system LTC4 production in MC/9 cells. The experiment in a line: MC/9 HPLC assay, inhibition of LTC4 production. It is filed as cell-based. The conditions noted are these: Mus musculus; for inhibition at 3 µM: MC9, 3 μM, A23187 stimulated; for inhibition at 1 µM: MC9, Table 2 column 3, no concentration in head (1 μM according to b732), read-out: % Inhibition LTC4. The protocol:
(§1) Cultured MC/9 cells (3×10^6 cells) in 1 mL HBSS were pre-incubated with a series of concentrations of compound solubilized in DMSO for 30 minutes. Production of leukotrienes were stimulated with the addition of 1 μM calcium ionophore (A23187), diluted from a 4 mM DMSO stock in HBSS, and incubated at room temperature for 20 minutes. The reaction was stopped with the addition of 500 μL of methanol containing 20 ng/mL prostaglandin B2 as an internal standard. Samples were collected and stored at −20° C. at least 2 hr or overnight before centrifuged at 13,000 rpm for 15 minutes and loaded onto C18 SEP-PAK columns (Canadian Lifesciences IS12000) for solid phase extraction. The leukotrienes were analyzed by HPLC using an ACE C18 column (4.5 mm×150 mm, 5 m) eluted with acetonitrile/methanol/water mixture with H3PO4, pH 3.5 (37:26:37) with a flow rate of 1.8 mL/min. The amount of LTB4 (Cayman Chemical, 20110) and LTC4 (Cayman Chemical, 20210) were calculated based on reference standards and the level of inhibition of LTB4 production induced by the test compounds was calculated relative to control samples. The results are provided in Table 2, where Compound No. refers to the compounds identified in Table 1.

The target in experiment [3] is T1, recombinant human leukotriene A4 hydrolase enzyme. The experiment is described as follows: Amino-peptidase assay, alanine-4-nitroanalide. The experiment is classed as biochemical. The conditions noted are these: negative values = augmented peptidase activity, read-out: % Inhibition aminopeptidase-Alanine-4-nitroanalide activity of LTA4H (3 μM). The protocol:
A series of compound concentrations were pre-incubated in the absence of light with 0.5 μg of recombinant human leukotriene A4 hydrolase enzyme (Cayman Chemical 10007817) in 50 μL assay buffer (50 mM Tris-HCl, 100 mM KCl). The reaction was stimulated by adding 50 μL 6 mM alanine-4-nitroanilide (Sigma Aldrich A9325) in assay buffer. The amount of amino-peptidase activity was measured by determining the change in absorbance at 405 nm due to 4-nitroanaline production and comparing the rate of change to a reference standard (Sigma Aldrich 185310). Amino-peptidase activity was compared to control samples and the level of inhibition was calculated. Compounds that augment peptidase activity are represented by negative values.

The test system of experiment [4] is LTB4 production in MC/9 cells. The experiment is described as follows: MC/9 HPLC assay, inhibition of LTB4 production. It is filed as cell-based. To be noted: Mus musculus, MC9, Table 2 column 4, no concentration in head (1 μM according to b732), read-out: % Inhibition LTB4. The protocol:
as §1

Experiment [5] concerns LTB4 production in porcine or human whole blood. The experiment in a line: Whole blood HPLC assay, inhibition of LTB4 production. It is filed as cell-based. To be noted: 5 point curve, porcine or human whole blood (not specified). The protocol:
Porcine or human whole blood (1 mL) was pre-incubated with a series of concentrations of compound solubilized in DMSO for 30 minutes. Production of leukotrienes were stimulated with the addition of 20 μM calcium ionophore (A23187), diluted from a 4 mM DMSO stock in HBSS, and incubated at room temperature for 20 minutes. In porcine blood 20 μM arachidonic acid was added in addition to the calcium ionophore. The blood was centrifuged at 2,000 rpm for 15 minutes, and the plasma fraction removed for further processing. Plasma samples were diluted with 500 μL acidified water (HCl pH 3.0) and loaded onto C18 SEP-PAK columns (Canadian Lifesciences IS12000) for solid phase extraction. The leukotrienes were analyzed by HPLC using an ACE C18 column (4.5 mm×150 mm, 5 m) eluted with acetonitrile/methanol/water mixture with H3PO4, pH 3.5 (37:26:37) with a flow rate of 1.8 mL/min. The amount of LTB4 (Cayman Chemical, 20110) was calculated based on reference standards and the level of inhibition of LTB4 production induced by the test compounds was calculated relative to control samples. The results provided in Table 3 are IC50 values calculated based on a 5 point curve, where Compound No. refers to the compounds identified in Table 1.

The values that follow come from patent publication US12686668B2, “Leukotriene synthesis inhibitors” (Naegis Pharmaceuticals Inc., priority 2019, dated 2026).

As for `CCC(=O)CCc1ccc(Oc2nc3ccccc3s2)c(OC(C)C)c1` [Compound 112, 1-[4-(1,3-benzothiazol-2-yloxy)-3-(iso-propyloxy)-phenyl]pentan-3-one], in experiment [1], the “% Inhibition aminopeptidase-PGP activity of LTA4H” value is less than 25%.
Turning to `CCC(O)CCc1ccc(Oc2nc3ccccc3s2)c(OC2CCCC2)c1` (stereo not shown) [Compound 186, 1-[4-(1,3-benzothiazol-2-yloxy)-3-(cyclopentyloxy)-phenyl]pentan-3-ol], in experiment [1], the “% Inhibition aminopeptidase-PGP activity of LTA4H” value was greater than 75%. Also, the inhibition at 3 µM was 70 to 90% in experiment [2] and greater than 75% in experiment [3].
Consider `CCC(O)(CCc1ccc(Oc2nc3ccccc3s2)c(C(F)(F)F)c1)C(F)(F)F` (stereo not shown) [Compound 155, 1-[4-(1,3-benzothiazol-2-yloxy)-3-(trifluoromethyl)-phenyl]-3-(trifluoromethyl)-pentan-3-ol], for which the figures for the inhibition at 1 µM in experiment [4] and in experiment [2] were 10 to 30% and less than 10%, respectively. This compound had an IC50 in experiment [5] greater than 10 µM.
With `CCC(O)(CCc1ccc(Oc2nc3c(F)cc(F)cc3s2)c(OC)c1)C(F)(F)F` (stereo not shown) [Compound 107, 1-{4-[(4,6-difluoro-1,3-benzothiazol-2-yl)oxy]-3-methoxyphenyl}-3-(trifluoromethyl)pentan-3-ol], the inhibition at 1 µM in experiment [4] was greater than 90%. For the same compound, in experiment [2], the inhibition at 3 µM was greater than 90% and the inhibition at 1 µM is 70 to 90%. The IC50 in experiment [5] is greater than 10 µM.
Turning to `OC(c1ccc(Oc2nc3ccccc3s2)c(Cl)c1)C(F)(F)F` (stereo not shown) [Compound 167, 1-[4-(1,3-benzothiazol-2-yloxy)-3-chlorophenyl]-2,2,2-trifluoroethanol], the inhibition at 1 µM in experiment [4] and in experiment [2] was 10 to 30% in each case. Besides, the inhibition at 3 µM in experiment [2] was 10 to 30%; in experiment [3], greater than 75%. For the same compound, the IC50 in experiment [5] is greater than 10 µM.
Take `CCNC(c1ccc(Oc2nc3ccccc3s2)c(OC)c1)C(F)(F)F` (stereo not shown) [Compound 138, 1-[4-(1,3-benzothiazol-2-yloxy)-3-methoxyphenyl]-N-ethyl-2,2,2-trifluoroethanamine]: the inhibition at 1 µM in experiment [4] was in the range of 10 to 30%. Besides, in experiment [2], the inhibition at 3 µM is 70 to 90% and the inhibition at 1 µM was 30 to 50%. The IC50 in experiment [5] lay within 1 to 10 µM.
`CCC(C)(O)CCc1ccc(Oc2nc3ccccc3o2)cc1` (stereo not shown) [Compound 146, 1-[4-(1,3-benzoxazol-2-yloxy)phenyl]-3-methylpentan-3-ol]: the inhibition at 1 µM in experiment [4] was greater than 90%; in experiment [2], 10 to 30%. Besides, the inhibition at 3 µM in experiment [3] is less than 25%. For the same compound, the IC50 in experiment [5] was 1 to 10 µM.
In the case of `CCC(CCc1ccc(Oc2nc3ccccc3s2)c(OC)c1)N1CCN(C)CC1` (stereo not shown) [Compound 188, 1-[4-(1,3-benzothiazol-2-yloxy)-3-methoxyphenyl]-3-(4-methylpiperazinyl-1yl)pentane], in experiment [1], the “% Inhibition aminopeptidase-PGP activity of LTA4H” value is 25-50%. Besides, the figures for the inhibition at 3 µM in experiment [2] and in experiment [3] were 10 to 30% and less than 25%, respectively.
For `c1ccc2sc(Oc3ccc(CN4CCCC4)cc3)nc2c1` [Compound 164, 2-[4-(pyrrolidin-1-ylmethyl)phenoxy]-1,3-benzothiazole], the inhibition at 3 µM in experiment [2] was less than 10%; in experiment [3] it was greater than 75%. The IC50 in experiment [5] is 0.1 to 1 µM.
In the case of `CNC(c1ccc(Oc2nc3ccccc3s2)cc1)C(F)(F)F` (stereo not shown) [Compound 178, 1-[4-(1,3-benzothiazol-2-yloxy)phenyl]-2,2,2-trifluoro-N-methylethanamine], the “% Inhibition aminopeptidase-PGP activity of LTA4H” value in experiment [1] is listed as 70-90%. For the same compound, the figures for the inhibition at 3 µM in experiment [2] and in experiment [3] were less than 10% and 70 to 90%, respectively.
As for `OC(c1ccc(Oc2nc3ccccc3s2)cc1)C(F)(F)F` (stereo not shown) [Compound 166, 1-[4-(1,3-benzothiazol-2-yloxy)phenyl]-2,2,2-trifluoroethanol], the results for the inhibition at 3 µM in experiment [2] and in experiment [3] were 30 to 50% and less than 25%, respectively. For the same compound, the IC50 in experiment [5] lay in the range of 0.1 to 1 µM.
Consider `CC(O)CCc1ccc(Oc2nc3ccccc3s2)cc1` (stereo not shown) [Compound 141, 4-[4-(1,3-benzothiazol-2-yloxy)phenyl]butan-2-ol], for which the figures for the inhibition at 1 µM in experiment [4] and in experiment [2] were greater than 90% and 10 to 30%, respectively. The same compound came in with an IC50 in experiment [5] of 1 to 10 µM.
Consider `COc1cc(C(O)C(F)(F)F)ccc1Oc1nc2ccccc2s1` (stereo not shown) [Compound 137, 1-[4-(1,3-benzothiazol-2-yloxy)-3-methoxyphenyl]-2,2,2-trifluoroethanol], for which, in experiment [4], the inhibition at 1 µM lay within 10 to 30%. Besides, in experiment [2], the inhibition at 3 µM is 50 to 70%. The same compound showed an IC50 in experiment [5] greater than 10 µM.
For the compound `CC(CCc1ccc(Oc2nc3ccccc3s2)cc1)N1CCCC1C(=O)O` (stereo not shown) [Compound 157, 1-{4-[4-(1,3-benzothiazol-2-yloxy)phenyl]butan-2-yl}pyrrolidine-2-carboxylic acid], the inhibition at 1 µM in experiment [4] is 70 to 90%; in experiment [2], less than 10%. In addition, in experiment [5], the IC50 lay within 1 to 10 µM.
The matching figures for `CC(CCc1ccc(Oc2nc3ccccc3s2)cc1)N1CCCC1` (stereo not shown) [Compound 156, 2-{4-[3-(pyrrolidin-1-yl)butyl]phenoxy}-1,3-benzothiazole]: greater than 90%, less than 10% and 0.1 to 1 µM.
In the case of `CCC(O)(CCc1ccc(Oc2nc3ccccc3s2)c(OCC2CC2)c1)C(F)(F)F` (stereo not shown) [Compound 117, 1-[4-(1,3-benzothiazol-2-yloxy)-3-(cyclopropyl-methoxy)-phenyl]-3-(trifluoromethyl)-pentan-3-ol], the figures for the inhibition at 1 µM in experiment [4] and in experiment [2] were 70 to 90% and 30 to 50%, respectively. The IC50 in experiment [5] was greater than 10 µM.
For the compound `CCC(O)(CCc1ccc(Oc2nc3ccc(S(C)(=O)=O)cc3s2)c(OC)c1)C(F)(F)F` (stereo not shown) [Compound 106, 1-{3-methoxy-4-[(6-methylsulfonyl-1,3-benzothiazol-2-yl)oxy]phenyl}-3-(trifluoromethyl)pentan-3-ol], the inhibition at 1 µM in experiment [4] is 10 to 30%. Moreover, in experiment [2], the inhibition at 3 µM was 30 to 50% and the inhibition at 1 µM is 10 to 30%. In addition, the IC50 in experiment [5] is greater than 10 µM.
